Assay results reported in ChEMBL document CHEMBL3997855, “Discovery of Fevipiprant (NVP-QAW039), a Potent and Selective DP2 Receptor Antagonist for Treatment of Asthma” (ACS Med Chem Lett, 2017).

Experiments:
[1] = target: T1, Prostaglandin D2 receptor 2 (Homo sapiens, UniProt Q9Y5Y4); experiment: Antagonist activity at DP2 receptor in human isolated eosinophils assessed as inhibition of DK-PGD2-induced shape change preincubated for 5 mins followed by DK-PGD2 addition measured after 5 mins by flow cytometry
T1 sequence (Q9Y5Y4 whole entry): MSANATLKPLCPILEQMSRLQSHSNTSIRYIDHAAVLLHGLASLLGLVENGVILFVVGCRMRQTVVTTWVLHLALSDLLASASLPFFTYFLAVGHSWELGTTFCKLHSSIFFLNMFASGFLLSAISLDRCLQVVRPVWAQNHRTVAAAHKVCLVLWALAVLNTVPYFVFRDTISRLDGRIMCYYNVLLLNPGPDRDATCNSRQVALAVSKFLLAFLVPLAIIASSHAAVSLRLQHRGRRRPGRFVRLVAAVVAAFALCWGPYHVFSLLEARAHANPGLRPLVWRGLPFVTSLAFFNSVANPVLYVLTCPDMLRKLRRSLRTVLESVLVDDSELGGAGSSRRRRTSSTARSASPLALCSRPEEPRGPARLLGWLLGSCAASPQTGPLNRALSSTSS

[2] = target: T1, Prostaglandin D2 receptor 2; experiment: Displacement of [3H]PGD2 from human DP2 receptor expressed in CHO cell membranes after 60 mins by scintillation proximity assay
[3] = target: T1, Prostaglandin D2 receptor 2; experiment: Displacement of [3H]NVP-QAW039 from human DP2 receptor expressed in CHO cell membranes by TopCount scintillation assay
[4] = target: T2, Prostaglandin D2 receptor 2 (Homo sapiens) (UniProt Q9Y5Y4)
T2 sequence (whole entry): T1 sequence (Q9Y5Y4 whole entry)
Description: Displacement of [3H]NVP-QAW039 from human DP2 receptor expressed in CHO cell membranes assessed as dissociation half life by TopCount scintillation assay

[5] = Clearance in Wistar rat at 0.5 mg/kg, iv or 3 mg/kg, po by LC-MS/MS analysis; format: ADME, organism-based; settings: in vivo
[6] = Half life in Wistar rat at 0.5 mg/kg, iv by LC-MS/MS analysis; format: ADME, organism-based; settings: in vivo
[7] = Volume of distribution at steady state in Wistar rat at 0.5 mg/kg, iv or 3 mg/kg, po by LC-MS/MS analysis; format: ADME, organism-based; settings: in vivo, read-out: Vdss
[8] = Oral bioavailability in Wistar rat at 3 mg/kg by LC-MS/MS analysis; format: ADME, organism-based; settings: in vivo
[9] = target: T3, Prostacyclin receptor (Homo sapiens, UniProt P43119); experiment: Antagonist activity at IP receptor (unknown origin)
T3 sequence (P43119 whole entry): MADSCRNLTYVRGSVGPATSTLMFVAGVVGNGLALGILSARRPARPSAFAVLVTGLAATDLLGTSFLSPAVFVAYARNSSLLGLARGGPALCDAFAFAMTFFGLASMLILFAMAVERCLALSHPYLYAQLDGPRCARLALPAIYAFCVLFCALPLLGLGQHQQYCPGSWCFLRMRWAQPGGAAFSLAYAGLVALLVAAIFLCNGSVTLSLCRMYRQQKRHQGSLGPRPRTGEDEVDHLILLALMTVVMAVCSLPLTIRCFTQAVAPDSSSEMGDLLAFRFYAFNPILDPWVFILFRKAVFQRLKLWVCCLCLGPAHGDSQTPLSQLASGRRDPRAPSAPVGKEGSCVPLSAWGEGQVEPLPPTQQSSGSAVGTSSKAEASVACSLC

[10] = target: Prostaglandin E2 receptor EP2 subtype (Homo sapiens, UniProt P43116); experiment: Antagonist activity at EP2 receptor (unknown origin)
Chain of Prostaglandin E2 receptor EP2 subtype (P43116 whole entry): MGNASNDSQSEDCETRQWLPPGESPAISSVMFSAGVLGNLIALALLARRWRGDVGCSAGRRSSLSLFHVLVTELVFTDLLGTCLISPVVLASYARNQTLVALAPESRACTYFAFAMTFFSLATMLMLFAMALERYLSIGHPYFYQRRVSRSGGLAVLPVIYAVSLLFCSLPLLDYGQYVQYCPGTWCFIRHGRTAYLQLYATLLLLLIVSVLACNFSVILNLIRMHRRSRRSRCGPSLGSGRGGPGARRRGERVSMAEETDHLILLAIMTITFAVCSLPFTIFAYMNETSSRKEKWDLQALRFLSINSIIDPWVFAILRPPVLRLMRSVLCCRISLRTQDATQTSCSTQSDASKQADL

[11] = target: T4, Nuclear receptor subfamily 1 group I member 2 (Homo sapiens, UniProt O75469); experiment: Activation of PXR (unknown origin) assessed as CYP3A4 induction; format: ADME
T4 sequence (O75469 whole entry): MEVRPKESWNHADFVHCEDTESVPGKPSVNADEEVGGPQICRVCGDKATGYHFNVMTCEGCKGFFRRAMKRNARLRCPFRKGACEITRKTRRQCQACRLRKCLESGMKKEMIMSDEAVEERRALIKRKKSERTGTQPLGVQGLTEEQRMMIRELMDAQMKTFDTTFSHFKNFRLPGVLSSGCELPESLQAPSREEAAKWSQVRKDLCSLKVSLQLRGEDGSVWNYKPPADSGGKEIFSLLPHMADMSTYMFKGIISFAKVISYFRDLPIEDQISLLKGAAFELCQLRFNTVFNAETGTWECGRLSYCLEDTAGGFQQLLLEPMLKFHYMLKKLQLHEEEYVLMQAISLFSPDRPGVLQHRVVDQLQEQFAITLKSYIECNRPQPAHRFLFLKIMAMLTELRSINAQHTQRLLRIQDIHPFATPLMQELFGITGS

[12] = target: T5, Thromboxane A2 receptor (Homo sapiens, UniProt P21731); experiment: Antagonist activity at TP receptor (unknown origin)
T5 sequence (P21731 whole entry): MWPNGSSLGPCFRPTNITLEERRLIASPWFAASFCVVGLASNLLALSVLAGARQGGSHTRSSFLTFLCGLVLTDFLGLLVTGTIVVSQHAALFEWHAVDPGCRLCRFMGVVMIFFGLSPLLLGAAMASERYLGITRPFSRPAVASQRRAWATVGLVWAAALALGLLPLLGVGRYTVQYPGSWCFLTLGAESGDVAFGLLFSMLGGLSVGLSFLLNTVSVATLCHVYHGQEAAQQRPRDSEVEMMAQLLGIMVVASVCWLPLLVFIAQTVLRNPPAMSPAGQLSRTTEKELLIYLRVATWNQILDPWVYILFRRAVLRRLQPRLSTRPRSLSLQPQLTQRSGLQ

[13] = target: T1, Prostaglandin D2 receptor 2; experiment: Antagonist activity at DP2 receptor in CD4-positive human TH2 cells assessed as inhibition of PGD2-induced IL-4 production preincubated for 30 mins followed by PGD2 addition measured after 6 hrs
[14] = species: Rattus norvegicus; experiment: Toxicity in rat; settings: in vivo
[15] = target: Prostaglandin F2-alpha receptor (Homo sapiens, UniProt P43088); experiment: Antagonist activity at FP receptor (unknown origin)
Chain of Prostaglandin F2-alpha receptor (P43088 whole entry): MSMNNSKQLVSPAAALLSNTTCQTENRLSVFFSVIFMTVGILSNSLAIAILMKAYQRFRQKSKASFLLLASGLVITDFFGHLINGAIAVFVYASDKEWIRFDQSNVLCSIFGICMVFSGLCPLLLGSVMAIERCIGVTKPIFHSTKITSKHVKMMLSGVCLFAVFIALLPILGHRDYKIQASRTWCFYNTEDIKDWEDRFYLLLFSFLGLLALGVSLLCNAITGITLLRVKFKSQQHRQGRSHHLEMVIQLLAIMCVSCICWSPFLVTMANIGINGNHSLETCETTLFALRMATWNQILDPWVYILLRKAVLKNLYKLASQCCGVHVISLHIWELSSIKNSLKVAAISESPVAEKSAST

[16] = target: T1, Prostaglandin D2 receptor 2; experiment: Antagonist activity at DP2 receptor in CD4-positive human TH2 cells assessed as inhibition of DK-PGD2-induced IL-5 production after 6 to 8 hrs
[17] = system: Rattus norvegicus; experiment: In vivo antagonist activity at DP2 receptor in Sprague-Dawley rat DK-PGD2-induced pulmonary eosinophilia mechanistic model assessed inhibition of eosinophilia in broncho alveolar lavage fluid at 0.03 to 0.1 mg/kg, po pretreated for 40 mins starting at 2 hrs post IL-5 administration followed by DK-PGD2 administration measured after 2 hrs; format: functional, organism-based
[18] = target: T3, Prostacyclin receptor; experiment: Agonist activity at IP receptor (unknown origin)
[19] = target: T6, Prostaglandin E2 receptor EP3 subtype (Homo sapiens, UniProt P43115); experiment: Antagonist activity at EP3 receptor (unknown origin)
T6 sequence (P43115 whole entry): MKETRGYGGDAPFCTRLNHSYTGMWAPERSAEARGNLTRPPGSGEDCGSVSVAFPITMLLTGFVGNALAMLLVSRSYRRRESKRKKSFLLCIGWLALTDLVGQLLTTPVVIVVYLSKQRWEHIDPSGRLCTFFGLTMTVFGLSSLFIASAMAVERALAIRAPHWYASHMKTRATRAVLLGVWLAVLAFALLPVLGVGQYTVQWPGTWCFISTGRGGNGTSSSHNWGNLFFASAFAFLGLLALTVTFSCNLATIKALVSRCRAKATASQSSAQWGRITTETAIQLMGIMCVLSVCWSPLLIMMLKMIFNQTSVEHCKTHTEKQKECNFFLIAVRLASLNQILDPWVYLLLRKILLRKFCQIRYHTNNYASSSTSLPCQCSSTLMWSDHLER

[20] = target: T1, Prostaglandin D2 receptor 2; experiment: Antagonist activity at DP2 receptor in CD4-positive human TH2 cells assessed as inhibition of DK-PGD2-induced IL-13 production after 6 to 8 hrs
[21] = target: Prostaglandin E2 receptor EP4 subtype (Homo sapiens, UniProt P35408); experiment: Antagonist activity at EP4 receptor (unknown origin)
Chain of Prostaglandin E2 receptor EP4 subtype (P35408 whole entry): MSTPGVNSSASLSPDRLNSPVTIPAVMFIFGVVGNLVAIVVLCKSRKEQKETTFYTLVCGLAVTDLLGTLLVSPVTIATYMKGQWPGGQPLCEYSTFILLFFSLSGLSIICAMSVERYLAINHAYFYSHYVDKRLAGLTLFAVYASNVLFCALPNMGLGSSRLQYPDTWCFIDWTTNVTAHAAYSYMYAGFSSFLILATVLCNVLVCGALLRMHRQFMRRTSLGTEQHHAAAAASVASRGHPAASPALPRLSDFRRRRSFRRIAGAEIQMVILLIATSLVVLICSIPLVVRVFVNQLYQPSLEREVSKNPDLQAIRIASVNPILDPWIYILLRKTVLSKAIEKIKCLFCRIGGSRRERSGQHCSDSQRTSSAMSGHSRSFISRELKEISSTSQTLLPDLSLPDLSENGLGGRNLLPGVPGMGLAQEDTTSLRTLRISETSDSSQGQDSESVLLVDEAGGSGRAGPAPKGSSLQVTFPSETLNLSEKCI

[22] = target: T6, Prostaglandin E2 receptor EP3 subtype; experiment: Agonist activity at EP3 receptor (unknown origin)
[23] = Fraction unbound in plasma of Sprague-Dawley rat DK-PGD2-induced pulmonary eosinophilia mechanistic model at 0.03 to 0.1 mg/kg, po by equilibrium dialysis method; format: ADME, organism-based
[24] = target: Cytochrome P450 2C9 (Homo sapiens, UniProt P11712); experiment: Inhibition of human CYP2C9; format: ADME
Chain of Cytochrome P450 2C9 (P11712 whole entry): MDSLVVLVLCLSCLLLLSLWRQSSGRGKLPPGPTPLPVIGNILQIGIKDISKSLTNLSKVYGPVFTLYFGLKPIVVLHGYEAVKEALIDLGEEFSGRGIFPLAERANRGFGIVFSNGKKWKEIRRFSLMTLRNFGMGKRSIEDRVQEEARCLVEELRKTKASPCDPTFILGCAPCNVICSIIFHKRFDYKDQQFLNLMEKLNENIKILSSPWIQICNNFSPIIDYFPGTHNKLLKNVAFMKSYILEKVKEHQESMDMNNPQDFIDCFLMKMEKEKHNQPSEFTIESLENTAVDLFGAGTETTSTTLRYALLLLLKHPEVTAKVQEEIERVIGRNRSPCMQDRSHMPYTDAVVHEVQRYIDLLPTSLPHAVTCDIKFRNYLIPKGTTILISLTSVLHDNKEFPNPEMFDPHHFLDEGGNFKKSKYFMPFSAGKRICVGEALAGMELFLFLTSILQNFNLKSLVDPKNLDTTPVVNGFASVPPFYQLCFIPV

[25] = target: Cytochrome P450 2D6 (Homo sapiens, UniProt P10635); experiment: Inhibition of human CYP2D6; format: ADME
Chain of Cytochrome P450 2D6 (P10635 whole entry): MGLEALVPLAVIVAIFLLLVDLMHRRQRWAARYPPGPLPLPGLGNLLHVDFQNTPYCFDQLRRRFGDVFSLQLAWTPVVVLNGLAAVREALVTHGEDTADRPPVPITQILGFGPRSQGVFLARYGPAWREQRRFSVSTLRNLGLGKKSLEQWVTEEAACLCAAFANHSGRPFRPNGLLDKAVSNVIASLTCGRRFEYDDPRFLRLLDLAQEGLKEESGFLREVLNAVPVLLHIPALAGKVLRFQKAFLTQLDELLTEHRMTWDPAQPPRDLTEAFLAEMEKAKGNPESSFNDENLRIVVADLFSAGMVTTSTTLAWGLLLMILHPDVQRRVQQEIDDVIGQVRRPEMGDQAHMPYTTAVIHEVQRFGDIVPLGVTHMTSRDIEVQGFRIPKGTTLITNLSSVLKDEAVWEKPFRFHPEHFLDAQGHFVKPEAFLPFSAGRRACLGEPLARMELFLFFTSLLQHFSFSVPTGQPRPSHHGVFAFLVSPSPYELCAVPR

[26] = species: Canis familiaris; experiment: Toxicity in dog; parameters: species or system Canis lupus familiaris; settings: in vivo
[27] = target: T7, Prostaglandin D2 receptor (Homo sapiens, UniProt Q13258); experiment: Antagonist activity at DP1 receptor (unknown origin)
T7 sequence (Q13258 whole entry): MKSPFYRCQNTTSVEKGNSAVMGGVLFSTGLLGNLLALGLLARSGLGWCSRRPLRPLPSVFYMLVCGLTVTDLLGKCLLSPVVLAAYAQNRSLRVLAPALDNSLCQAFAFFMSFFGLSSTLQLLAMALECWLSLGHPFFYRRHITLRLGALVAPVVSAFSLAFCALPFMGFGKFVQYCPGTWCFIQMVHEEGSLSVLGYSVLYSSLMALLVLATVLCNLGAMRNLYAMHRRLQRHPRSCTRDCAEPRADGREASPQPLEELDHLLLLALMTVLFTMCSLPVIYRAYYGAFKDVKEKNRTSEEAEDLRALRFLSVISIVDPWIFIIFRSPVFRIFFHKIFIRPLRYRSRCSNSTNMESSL

[28] = target: Cytochrome P450 3A4 (Homo sapiens, UniProt P08684); experiment: Inhibition of human CYP3A4; format: ADME
Chain of Cytochrome P450 3A4 (P08684 whole entry): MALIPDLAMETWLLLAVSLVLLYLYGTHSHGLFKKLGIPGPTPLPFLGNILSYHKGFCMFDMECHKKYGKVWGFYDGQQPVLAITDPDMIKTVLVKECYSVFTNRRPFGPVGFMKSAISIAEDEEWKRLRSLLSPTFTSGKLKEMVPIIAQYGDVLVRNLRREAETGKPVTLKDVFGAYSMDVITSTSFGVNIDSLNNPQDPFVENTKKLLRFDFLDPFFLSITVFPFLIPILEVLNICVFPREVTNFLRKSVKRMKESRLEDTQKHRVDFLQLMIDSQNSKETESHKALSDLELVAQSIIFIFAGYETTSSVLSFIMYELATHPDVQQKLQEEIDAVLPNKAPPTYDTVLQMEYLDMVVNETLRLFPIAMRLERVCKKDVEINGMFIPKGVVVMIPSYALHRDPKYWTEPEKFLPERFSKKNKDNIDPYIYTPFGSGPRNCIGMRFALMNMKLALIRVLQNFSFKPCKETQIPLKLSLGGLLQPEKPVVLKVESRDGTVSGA

[29] = target: T8, Cytochrome P450 1A2 (Homo sapiens, UniProt P05177); experiment: Inhibition of human CYP1A2; format: ADME
T8 sequence (P05177 whole entry): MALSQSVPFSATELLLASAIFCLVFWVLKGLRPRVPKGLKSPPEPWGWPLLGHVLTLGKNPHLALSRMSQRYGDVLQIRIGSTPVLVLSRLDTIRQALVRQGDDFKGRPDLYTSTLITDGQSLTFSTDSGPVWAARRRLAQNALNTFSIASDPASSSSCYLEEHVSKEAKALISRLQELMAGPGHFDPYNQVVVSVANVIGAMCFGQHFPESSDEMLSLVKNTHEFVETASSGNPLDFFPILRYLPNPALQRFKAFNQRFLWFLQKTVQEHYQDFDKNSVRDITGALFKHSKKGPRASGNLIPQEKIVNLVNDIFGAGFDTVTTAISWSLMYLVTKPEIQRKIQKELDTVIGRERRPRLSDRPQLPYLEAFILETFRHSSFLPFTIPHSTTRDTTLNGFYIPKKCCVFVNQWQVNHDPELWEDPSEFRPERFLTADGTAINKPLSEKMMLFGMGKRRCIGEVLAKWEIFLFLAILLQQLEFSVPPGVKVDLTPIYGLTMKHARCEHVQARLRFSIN

[30] = system: Rattus norvegicus; experiment: In vivo antagonist activity at DP2 receptor in Sprague-Dawley rat DK-PGD2-induced pulmonary eosinophilia mechanistic model assessed inhibition of eosinophilia in broncho alveolar lavage fluid at 0.1 to 0.3 mg/kg, po pretreated for 40 mins starting at 2 hrs post IL-5 administration followed by DK-PGD2 administration measured after 2 hrs; format: functional, organism-based
[31] = Antagonist activity at DP2 receptor in human whole assessed as inhibition of DK-PGD2-induced eosinophils shape change preincubated for 5 mins followed by DK-PGD2 addition measured after 5 mins by flow cytometry

Cc1c(CC(=O)O)c2cccnc2n1Cc1ccc(C(F)(F)F)cc1C(F)(F)F
IC50 [1]: 14 nM

Cc1c(CC(=O)O)c2cccnc2n1Cc1ccc(S(=O)(=O)C(C)C)cc1
Ki [2]: 86 nM

CCS(=O)(=O)c1ccc(Cn2c(C)c(CC(=O)O)c3cccnc32)c(Cl)c1
Kd [3]: 1.91 nM
T1/2 [4]: 3.36 min
Ki [2]: 6 nM
clearance [5]: 4.4 mL/min/kg
IC50 [1]: 1.3 nM
half-life [6]: 462 min
Vd [7]: 1.1 L/kg
bioavailability [8]: 71%

CCS(=O)(=O)c1ccc(Cn2c(C)c(CC(=O)O)c3cccnc32)c(C(F)(F)F)c1
Ki [2]: 7 nM
clearance [5]: 2.9 mL/min/kg
IC50 [1]: 0.8 nM
half-life [6]: 552 min
Vd [7]: 1.2 L/kg
bioavailability [8]: 97%

Cc1cc(S(C)(=O)=O)ccc1Cn1c(C)c(CC(=O)O)c2cccnc21
IC50 [1]: 4 nM

Cc1c(CC(=O)O)c2cccnc2n1Cc1ccc(S(C)(=O)=O)cc1Cl
Ki [2]: 4 nM
IC50 [1]: 1.7 nM

Cc1c(CC(=O)O)c2cccnc2n1Cc1ccc(S(C)(=O)=O)c(C(F)(F)F)c1
Ki [2]: 31 nM
IC50 [1]: 4 nM

Cc1ccc2c(CC(=O)O)c(C)n(Cc3ccc(S(C)(=O)=O)cc3)c2n1
Ki [2]: 72 nM

Cc1c(CC(=O)O)c2c(Cl)ccnc2n1Cc1ccc(S(C)(=O)=O)cc1
Ki [2]: 356 nM
IC50 [1]: 80 nM

CCS(=O)(=O)c1ccc(Cn2c(C)c(CC(=O)O)c3cccnc32)cc1
Ki [2]: 50 nM
IC50 [1]: 4 nM

Cc1cnc2c(c1)c(CC(=O)O)c(C)n2Cc1ccc(S(C)(=O)=O)cc1
Ki [2]: 1340 nM

CCc1ccc2c(CC(=O)O)c(C)n(Cc3ccc(S(C)(=O)=O)cc3)c2n1
Ki [2]: 47 nM
IC50 [1]: 6 nM

Cc1c(CC(=O)O)c2ccccc2n1Cc1ccc(S(C)(=O)=O)cc1
Kd [3]: 25.1 nM
T1/2 [4]: 0.18 min
Ki [2]: 19 nM
IC50 [1]: 20 nM

Cc1c(CC(=O)O)c2cc(Br)cnc2n1Cc1ccc(S(C)(=O)=O)cc1
Ki [2]: 735 nM

Cc1c(CC(=O)O)c2cccnc2n1Cc1ccc(S(C)(=O)=O)cc1C(F)(F)F [FEVIPIPRANT]
Kd [3]: 1.02 nM
T1/2 [4]: 12 min
IC50 [9]: > 10 µM
IC50 [10]: > 10 µM
Activity [11]: Not Active
IC50 [12]: > 10 µM
IC50 [13]: 3.1 nM
Activity [14]: Non-Toxic
IC50 [15]: > 10 µM
clearance [5]: 1.6 mL/min/kg
IC50 [16]: 2.6 nM
IC50 [1]: 0.4 nM
IC50 [17]: 6.5 nM
EC50 [18]: > 10 µM
half-life [6]: 792 min
IC50 [19]: > 10 µM
IC50 [20]: 1.4 nM
IC50 [21]: > 10 µM
EC50 [22]: > 10 µM
fraction unbound [23]: 0.08
IC50 [24]: > 100 µM
IC50 [25]: > 100 µM
Vd [7]: 1.1 L/kg
Activity [26]: Non-Toxic
IC50 [27]: > 10 µM
IC50 [28]: > 100 µM
IC50 [29]: > 100 µM
bioavailability [8]: 43%

Cc1c(CC(=O)O)c2cccnc2n1Cc1ccc(S(C)(=O)=O)cc1 [QAV680]
Kd [3]: 15.1 nM
T1/2 [4]: 1.29 min
IC50 [30]: 40 nM
IC50 [16]: 59 nM
IC50 [1]: 5 nM
IC50 [20]: 25 nM
IC50 [31]: 31 nM
